What was measured:
[1] = test system: antibodies in sera from SARS patients (sera 1a, 1b, 2, 6, 37, 62, London, SARS-yellow, SARS-green); format: binding, human; parameters: Binding of serum 6 to linear peptides of protein X1 of SARS-CoV Urbani / Binding of serum 37 to linear peptides of protein X1 of SARS-CoV Urbani / Binding of serum 6 to looped/cyclic peptide (PEPSCAN-ELISA) / Binding of serum 37 to looped/cyclic peptide (PEPSCAN-ELISA) / Binding of serum 37 to looped/cyclic peptides of protein X1 of SARS-CoV Urbani / Binding of serum 6 to linear peptides of protein X2 / Binding of serum 37 to linear peptides of protein X2 / Binding of serum 37 to looped/cyclic peptides of protein X2 of SARS-CoV Urbani / Binding of serum 6 to linear peptides of protein M of SARS-CoV Urbani / Binding of serum 37 to linear peptides of protein M of SARS-CoV Urbani / Binding of serum 6 to looped/cyclic peptides of protein M of SARS-CoV Urbani / Binding of serum 37 to looped/cyclic peptides of protein M of SARS-CoV Urbani / Binding of serum 6 to linear peptides of protein X3 of SARS-CoV Urbani / Binding of serum 37 to linear peptides of protein X3 of SARS-CoV Urbani / Binding of serum 37 to looped/cyclic peptides of protein X3 of SARS-CoV Urbani / Binding of serum 6 to linear peptides of protein X4 of SARS-CoV Urbani / Binding of serum 37 to linear peptides of protein X4 of SARS-CoV Urbani / Binding of serum 37 to looped/cyclic peptides of protein X4 of SARS-CoV Urbani / Binding of serum 6 to linear peptides of protein X5 of SARS-CoV Urbani / Binding of serum 37 to linear peptides of protein X5 of SARS-CoV Urbani / Binding of serum 37 to looped/cyclic peptides of protein X5 of SARS-CoV Urbani / Binding of serum 6 to linear peptides of protein N of SARS-CoV Urbani / Binding of serum 37 to linear peptides of protein N of SARS-CoV Urbani / Binding of serum 6 to linear peptide (PEPSCAN-ELISA) / Binding of serum 1a to looped/cyclic peptides of protein N of SARS-CoV Urbani / Binding of serum 1b to looped/cyclic peptides of protein N of SARS-CoV Urbani / Binding of serum 2 to looped/cyclic peptides of protein N of SARS-CoV Urbani / Binding of serum 6 to looped/cyclic peptides of protein N of SARS-CoV Urbani / Binding of serum 37 to looped/cyclic peptides of protein N of SARS-CoV Urbani / Binding of serum 62 to looped/cyclic peptides of protein N of SARS-CoV Urbani / Binding of serum London to looped/cyclic peptides of protein N of SARS-CoV Urbani / Binding of serum SARS-green to looped/cyclic peptides of protein N of SARS-CoV Urbani: unit not given here
[2] = test system: control sera (pooled serum of ten healthy LUMC hospital workers; commercial negative donor pooled serum from the Dutch bloodbank); format: binding, human; parameters: Binding of Control serum LUMC to linear peptides / Binding of Control serum Blood-bank to linear peptides / Binding of Control serum LUMC to looped peptides / Binding of Control Serum Blood-Bank to Looped peptides / Binding of Control serum LUMC to linear peptides of the protein M of SARS-CoV Urbani / Binding of Control serum Blood-bank to linear peptides of the protein M of SARS-CoV Urbani / Binding of Control serum LUMC to looped peptides of the protein M of SARS-CoV Urbani / Binding of Control Serum Blood-Bank to Looped peptides of the protein M of SARS-CoV Urbani: unit not given here
[3] = test system: rabbit serum obtained by immunizing a rabbit with the SARS-CoV strain Frankfurt 1; format: binding; parameters: Binding of a rabbit serum to linear peptides / Binding of a rabbit serum to looped peptides / Rabbit serum linear peptides / Rabbit serum looped peptides / Binding of a rabbit serum to linear peptides of protein N of SARS-CoV Urbani (Rabbit serum linear peptides) / Binding of a rabbit serum to looped/cyclic peptides of protein N of SARS-CoV Urbani (Rabbit serum looped peptides): unit not given here
[4] = test system: recombinant human anti-SARS-CoV antibody 03-018; format: binding; parameters: Binding of antibody 03-018 to linear peptides of the N protein of SARS-CoV Urbani / Binding of antibody 03-018 to looped/cyclic peptides of the N protein of SARS-CoV Urbani: unit not given here

Sequence | Binding of serum 1a to linear peptides of protein N of SARS-CoV Urbani [1] | Binding of serum 1a to looped/cyclic peptides of protein N of SARS-CoV Urbani [1] | Binding of serum 1b to linear peptides of protein N of SARS-CoV Urbani [1] | Binding of serum 1b to looped/cyclic peptides of protein N of SARS-CoV Urbani [1] | Binding of serum 2 to linear peptides of protein N of SARS-CoV Urbani [1] | Binding of serum 2 to looped/cyclic peptides of protein N of SARS-CoV Urbani [1] | Binding of serum 6 to linear peptides of protein N of SARS-CoV Urbani [1] | Binding of serum 6 to looped/cyclic peptides of protein N of SARS-CoV Urbani [1] | Binding of serum 37 to linear peptides of protein N of SARS-CoV Urbani [1] | Binding of serum 37 to looped/cyclic peptides of protein N of SARS-CoV Urbani [1] | Binding of serum 62 to linear peptides of protein N of SARS-CoV Urbani [1] | Binding of serum 62 to looped/cyclic peptides of protein N of SARS-CoV Urbani [1] | Binding of serum London to linear peptides of protein N of SARS-CoV Urbani [1] | Binding of serum London to looped/cyclic peptides of protein N of SARS-CoV Urbani [1] | Binding of serum SARS-green to linear peptides of protein N of SARS-CoV Urbani [1] | Binding of serum SARS-green to looped/cyclic peptides of protein N of SARS-CoV Urbani [1] | Binding of serum SARS-yellow to linear peptides of protein N of SARS-CoV Urbani [1] | Binding of serum SARS-yellow to looped/cyclic peptides of protein N of SARS-CoV Urbani [1] | Binding of antibody 03-018 to linear peptides of the N protein of SARS-CoV Urbani [4] | Binding of antibody 03-018 to looped/cyclic peptides of the N protein of SARS-CoV Urbani [4] | also measured
NTNSGPDDQIGYYRR | 0.2 | 0.5 | 0.1 | 0.4 | 0.2 | 0.5 | 0.2 | 0.3 | 0.6 | 0.9 | 0.6 | 0.8 | 0.4 | 0.5 | 0.3 | 0.6 | 0.7 | 0.6 | 0.1 | 0.3 | Binding of Control Serum Blood-Bank to Looped peptides [2]: 0.7; Binding of Control serum Blood-bank to linear peptides [2]: 0.7; Binding of Control serum LUMC to linear peptides [2]: 0.7; Binding of Control serum LUMC to looped peptides [2]: 0.9; Binding of a rabbit serum to linear peptides of protein N of SARS-CoV Urbani (Rabbit serum linear peptides) [3]: 0.1; Binding of a rabbit serum to looped/cyclic peptides of protein N of SARS-CoV Urbani (Rabbit serum looped peptides) [3]: 0.6
PAADMDDFSRQLQNS | 0.3 | 0.3 | 0.2 | 0.1 | 0.2 | 0.3 | 0.6 | 1.1 | 0.8 | 0.6 | 0.7 | 0.3 | 0.6 | 0.3 | 0.3 | 0.3 | 0.5 | 0.3 | 0.1 | 0.2 | Control Serum Blood-Bank Looped peptides [2]: 0.3; Control serum Blood-bank linear peptides [2]: 0.8; Control serum LUMC linear peptides [2]: 0.8; Control serum LUMC looped peptides [2]: 0.3; Binding of a rabbit serum to linear peptides of protein N of SARS-CoV Urbani (Rabbit serum linear peptides) [3]: 0.2; Binding of a rabbit serum to looped/cyclic peptides of protein N of SARS-CoV Urbani (Rabbit serum looped peptides) [3]: 0.3
PDDQIGYYRRATRRV | 0.2 | 0.4 | 0.1 | 0.3 | 0.2 | 0.6 | 0.2 | 0.5 | 0.6 | 0.9 | 0.5 | 0.8 | 0.4 | 0.5 | 0.3 | 0.8 | 0.6 | 0.7 | 0.1 | 0.3 | Binding of Control Serum Blood-Bank to Looped peptides [2]: 0.8; Binding of Control serum Blood-bank to linear peptides [2]: 0.6; Binding of Control serum LUMC to linear peptides [2]: 0.6; Binding of Control serum LUMC to looped peptides [2]: 0.8; Recognition of the peptide by the rabbit serum [3]: recognized
PEASLPYGANKEGIV | 0.3 | 0.3 | 0.1 | 0.2 | 0.2 | 0.4 | 0.2 | 0.2 | 0.7 | 0.4 | 0.7 | 0.3 | 0.5 | 0.3 | 0.3 | 0.3 | 0.6 | 0.2 | 0.1 | 0.2 | Binding of Control Serum Blood-Bank to Looped peptides [2]: 0.5; Binding of Control serum Blood-bank to linear peptides [2]: 0.9; Binding of Control serum LUMC to linear peptides [2]: 0.7; Binding of Control serum LUMC to looped peptides [2]: 0.6; Binding of a rabbit serum to linear peptides of protein N of SARS-CoV Urbani (Rabbit serum linear peptides) [3]: 0.1; Binding of a rabbit serum to looped/cyclic peptides of protein N of SARS-CoV Urbani (Rabbit serum looped peptides) [3]: 0.2
PEQTQGNFGDQDLIR | – | 0.4 | – | 0.4 | – | 0.4 | – | 0.2 | – | 0.6 | – | 0.4 | – | 0.4 | – | 0.4 | – | 0.6 | 0.1 | 0.2 | Recognition of the peptide by sera of SARS-CoV infected individuals, and form (linear, looped/cyclic) in which it is recognized [1]: recognized in linear form; Binding of Control Serum Blood-Bank to Looped peptides [2]: 0.5; Binding of Control serum Blood-bank to linear peptides [2]: 0.8; Binding of Control serum LUMC to linear peptides [2]: 0.9; Binding of Control serum LUMC to looped peptides [2]: 0.6; Binding of a rabbit serum to linear peptides of protein N of SARS-CoV Urbani (Rabbit serum linear peptides) [3]: 0.1; Binding of a rabbit serum to looped/cyclic peptides of protein N of SARS-CoV Urbani (Rabbit serum looped peptides) [3]: 0.5
